According to ChEMBL document CHEMBL1141912, “Novel beta-(imidazol-4-yl)-beta-amino acids: solid-phase synthesis and study of their inhibitory activity against geranylgeranyl protein transferase type I” (Bioorg Med Chem Lett, 2005):

target: Protein farnesyltransferase (Homo sapiens, UniProt P49354+P49356); test: Inhibition of Farnesyltransferase; format: protein-complex assay

IC50 [µM]	Structure (SMILES)
> 10	Brc1ccc(CCN(Cc2ccc(Oc3ccccc3)cc2)Cc2c[nH]cn2)cc1
> 10	Fc1ccc(CCN(Cc2ccc(Oc3ccccc3)cc2)Cc2c[nH]cn2)cc1

target: T1, Geranylgeranyl transferase type I (Homo sapiens, UniProt P49354+P53609); test: Inhibition of Geranylgeranyl transferase type I; format: protein-complex assay

IC50 [µM]	Structure (SMILES)
0.256	Brc1ccc(CCN(Cc2ccc(Oc3ccccc3)cc2)Cc2c[nH]cn2)cc1
1.07	O=C(O)CC(c1cnc[nH]1)N(CCc1cccs1)Cc1ccc(-c2ccccc2)cc1 (centres undefined)
0.46	Fc1ccc(CCN(Cc2ccc(Oc3ccccc3)cc2)Cc2c[nH]cn2)cc1
0.15	COC(=O)C(CC(C)C)NC(=O)c1ccc(NCC(N)CS)cc1-c1cccc2ccccc12 (centres undefined)
1.1	O=C(O)CC(c1cnc[nH]1)N(CCc1ccc(F)cc1)Cc1ccc(-c2ccccc2)cc1 (centres undefined)
0.09	O=C(O)CC(c1cnc[nH]1)N(CCc1ccc(F)cc1)Cc1ccc(Oc2ccccc2)cc1 (centres undefined)
0.86	O=C(O)CC(c1cnc[nH]1)N(CCCCc1ccccc1)Cc1ccc(Oc2ccccc2)cc1 (centres undefined)
1.07	CCCCOc1ccc(S(=O)(=O)N(CCc2ccc(F)cc2)C(CC(=O)O)c2cnc[nH]2)cc1 (centres undefined)

target: T1, Geranylgeranyl transferase type I; test: Percent inhibition of Geranylgeranyl transferase type I at 10 uM; format: protein-complex assay

inhibition [%]	Structure (SMILES)
10	CC(C)CCN(Cc1ccccn1)C(CC(=O)O)c1c[nH]cn1 (centres undefined)
72	Cc1ccc(CCN(Cc2ccc(Oc3ccccc3)cc2)Cc2c[nH]cn2)cc1
88	Brc1ccc(CCN(Cc2ccc(Oc3ccccc3)cc2)Cc2c[nH]cn2)cc1
16	O=C(O)CC(c1c[nH]cn1)N(CCc1cccs1)Cc1nc[nH]n1 (centres undefined)
78	Fc1ccc(CCN(Cc2ccc(Oc3ccccc3)cc2)Cc2c[nH]cn2)cc1
3	CCCCCCN(Cc1nc[nH]n1)C(CC(=O)O)c1c[nH]cn1 (centres undefined)
77	Brc1ccc(CCN(Cc2ccc(-c3ccccc3)cc2)Cc2c[nH]cn2)cc1
74	O=C(O)CC(c1c[nH]cn1)N(CCCc1ccccc1)Cc1cccc2ccccc12 (centres undefined)
53	O=C(O)CC(c1c[nH]cn1)N(CCc1ccc(F)cc1)S(=O)(=O)c1cc(Cl)sc1Cl (centres undefined)
40	CCCCCCCN(Cc1ccc(Oc2ccccc2)cc1)Cc1c[nH]cn1
24	Cc1ccccc1CN(Cc1ccc(C(C)(C)C)cc1)Cc1c[nH]cn1
69	Brc1ccc(CCN(Cc2ccc3ccccc3c2)Cc2c[nH]cn2)cc1
11	O=C(O)CC(c1c[nH]cn1)N(CCc1cccs1)Cc1ccccn1 (centres undefined)
8	O=C(O)CC(c1c[nH]cn1)N(Cc1nc[nH]n1)CC1CCCCC1 (centres undefined)
21	O=C(O)CC(c1c[nH]cn1)N(CC1CCCCC1)S(=O)(=O)c1cc(Cl)sc1Cl (centres undefined)
23	c1cncc(CN(Cc2c[nH]cn2)Cc2ccco2)c1
11	O=C(O)CC(c1c[nH]cn1)N(Cc1nc[nH]n1)C1CCN(Cc2ccccc2)CC1 (centres undefined)
35	O=C(O)CC(c1c[nH]cn1)N(CCc1ccc(F)cc1)Cc1c[nH]c(-c2ccccc2)n1 (centres undefined)
18	O=C(O)CC(c1c[nH]cn1)N(CC(c1ccccc1)c1ccccc1)C1CCN(Cc2ccccc2)C1 (centres undefined)
21	O=C(O)CC(NC1CCN(Cc2ccccc2)CC1)c1c[nH]cn1 (centres undefined)
30	CCCCOc1ccc(S(=O)(=O)N(CC2CCCCC2)C(CC(=O)O)c2c[nH]cn2)cc1 (centres undefined)
0	O=C(O)CC(c1c[nH]cn1)N(CCCCCCO)Cc1c[nH]c(-c2ccccc2)n1 (centres undefined)
0	O=C(O)CC(c1c[nH]cn1)N(CCCCCCO)CC(c1ccccc1)c1ccccc1 (centres undefined)
78	CCCCOc1ccc(S(=O)(=O)N(CCc2ccc(F)cc2)C(CC(=O)O)c2c[nH]cn2)cc1 (centres undefined)
